In patent US9169217B2, “Arylalkyl esters of 4-amino-6-(substituted phenyl)-picolinates and 6-amino-2-(substituted phenyl)-pyrimidinecarboxylates and their use as selective herbicides for crops” (Dow AgroSciences LLC, priority 2011, dated 2015):
Read-outs that look alike come from different tables or passages of the source.

Columns and labels:
[1] = tested on: Brachiaria platyphylla (GRISEB.) NASH (broadleaf signalgrass); assay: Postemergence foliar-applied herbicidal activity in direct seeded rice (Example 16); assay type: in vivo; conditions: BRAPP, probit analysis; for GR50: 50% growth reduction; for GR80: 80% growth reduction; for GR90: 90% growth reduction
Procedure, shortened: (§1)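 Greenhouse plants at 2nd–3rd true leaf stage (10–17 d, ~29/26 °C, 14-h photoperiod) sprayed postemergence with ester forms in acetone–DMSO plus 1.25% crop oil concentrate at 187 L/ha. Visual injury scored 0–100% versus untreated plants after 3 weeks; GR50/GR80 derived by probit analysis.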

[2] = tested on: Polygonum pensylvanicum L. (Pennsylvania smartweed); assay: as above; assay type: in vivo; conditions: POLPY, probit analysis; for GR50: 50% growth reduction; for GR80: 80% growth reduction; for GR90: 90% growth reduction
Procedure, shortened: as §1

[3] = tested on: Scirpus juncoides ROXB. (Japanese bulrush); assay: as above; assay type: in vivo; conditions: Schoenoplectiella juncoides, post-emergence, 504 h, read-out: Visual Injury (%) SCPJU
Procedure, shortened: as §1

SMILES	GR50 [1] [g ae/ha]	GR80 [1] [g ae/ha]	GR90 [1] [g ae/ha]	GR50 [2] [g ae/ha]	GR80 [2] [g ae/ha]	GR90 [2] [g ae/ha]	pest or weed control at 8.75 g/ha [3] [%]	melting point [°C]	pest or weed control at 8.75 g/ha ([3]; rice cropping systems, foliar-applied, 8.75 g ae/ha, 21 DAA, may represent multiple trials) [%]
COc1c(Cl)ccc(-c2nc(C(=O)OCc3ccccc3)c(Cl)c(N)c2F)c1F [Compound 1, benzyl 4-amino-3-chloro-6-(4-chloro-2-fluoro-3-methoxyphenyl)-5-fluoropicolinate]	<4.38	9.9	26.0	<8.75	19.7	46.7	93		
COc1c(Cl)ccc(-c2cc(N)c(Cl)c(C(=O)OCc3ccccc3)n2)c1F [Compound 39]								90 to 91.5	
COC(=O)c1nc(-c2ccc(C3CC3)cc2)c(F)c(N)c1Cl [Compound B, methyl 4-amino-3-chloro-6-(4-cyclopropylphenyl)-5-fluoropicolinate]								116 to 119	
COC(=O)c1nc(-c2ccc(Cl)c(OC)c2F)c(F)c(N)c1Cl [E, methyl 4-amino-3-chloro-6-(4-chloro-2-fluoro-3-methoxyphenyl)-5-fluoropicolinate, reference compound]	<4.38	22.7	84.3	30.7	>70	>70			61
